Legend:
[1] = Cytotoxicity determination in HepG2.2.15 cells (CCK-8); format: cell-based; details: human, 6 days of compound treatment, CCK-8, highest concentration 100 μM
Summary of the method: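 HepG2.2.15 cells seeded at 5,000 cells/well in 2% FBS medium, incubated overnight at 37° C., then treated 6 days with compounds (8 points, 3-fold dilutions, top 100 μM), medium refreshed once midway. CCK-8 added for 2.5 h; A450 read against 630 nm reference; CC50 calculated, averaged over repeats.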

HBV = HBV inhibitory activity: HBV DNA in the culture medium of HepG2.2.15 cells by q-PCR; format: cell-based; details: Hepatitis B virus, HepG2.2.15, 144 h, HepG2.2.15 cells, 6 days of compound treatment, HBV DNA in culture medium by q-PCR, highest concentration 10 μM; read-out: EC50
Summary of the method: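 HepG2.2.15 cells in 2% FBS medium, 40,000 per well, treated 6 days with compound (medium refreshed once), eight 3-fold dilutions from 10 μM top. HBV DNA extracted from culture medium and quantified by q-PCR; EC50 averaged over repeats. Cytotoxicity run in parallel at 5,000 cells per well, top 100 μM, giving CC50.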

| SMILES | CC50 at 6 days [1] [nM] | EC50 (HBV) [nM] |
| --- | --- | --- |
| COC(=O)C1=C(C2CCN(S(=O)(=O)[C@H]3C[C@H](C(=O)O)C3)C2)NC(c2nccs2)=NC1c1ccc(F)cc1Cl (relative stereo) [Compound 367A, (trans)-3-((3-(6-(2-chloro-4-fluorophenyl)-5-(methoxycarbonyl)-2-(thiazol-2-yl)-3,6-dihydropyrimidin-4-yl)pyrrolidin-1-yl)sulfonyl)cyclobutanecarboxylic Acid] | 33400 | 303 |
| COC(=O)C1=C([C@H]2CC[C@H](C(=O)OC)CC2)NC(c2nccs2)=NC1c1ccc(F)cc1Br (relative stereo) [Compound 224, (trans)-Methyl 4-(2-bromo-4-fluorophenyl)-6-(4-(methoxycarbonyl)cyclohexyl)-2-(thiazol-2-yl)-1,4-dihydropyrimidine-5-carboxylate] | 28400 | 71 |
| COC(=O)C1=C(C2CCN(S(=O)(=O)[C@H]3CC[C@H](C(=O)O)CC3)CC2)NC(c2nccs2)=NC1c1ccc(F)cc1Cl (relative stereo) [Compound 313B, (trans)-4-((4-(6-(2-Chloro-4-fluorophenyl)-5-(methoxycarbonyl)-2-(thiazol-2-yl)-3,6-dihydropyrimidin-4-yl)piperidin-1-yl)sulfonyl)-cyclohexanecarboxylic Acid] | 34600 | 11 |
| CCOC(=O)C1=C(C2CCN(S(=O)(=O)C3CC(C(=O)O)C3)CC2)NC(c2nccs2)=NC1c1ccc(F)c(F)c1Br (stereo in doubt) [Compound 199B, (trans)-3-((4-(6-(2-bromo-3,4-difluorophenyl)-5-(ethoxycarbonyl)-2-(thiazol-2-yl)-3,6-dihydropyrimidin-4-yl)piperidin-1-yl)sulfonyl)cyclobutanecarboxylic Acid] | 14200 | < 4.6 |
| COC(=O)C1=C(C2CCN(C(N)=O)CC2)NC(c2nccs2)=NC1c1ccc(F)cc1Cl (stereo not drawn) [Compound 303, Methyl 6-(1-carbamoylpiperidin-4-yl)-4-(2-chloro-4-fluorophenyl)-2-(thiazol-2-yl)-1,4-dihydropyrimidine-5-carboxylate] | > 100000 | 54 |
| COC(=O)C1=C(C23CC(NC(C)=O)(C2)C3)NC(c2nccs2)=NC1c1ccc(F)cc1Cl (stereo not drawn) [Compound 391B, Methyl 6-(3-acetamidobicyclo[1.1.1]pentan-1-yl)-4-(2-chloro-4-fluorophenyl)-2-(thiazol-2-yl)-1,4-dihydropyrimidine-5-carboxylate] | 46800 | 68 |
| CCOC(=O)C1=C([C@H]2C[C@@H](NS(C)(=O)=O)C2(C)C)NC(c2nccs2)=NC1c1ccc(F)cc1Cl (mixture of isomers) [Compound 437, (cis)-Ethyl 4-(2-chloro-4-fluorophenyl)-6-(2,2-dimethyl-3-(methylsulfonamido)cyclobutyl)-2-(thiazol-2-yl)-1,4-dihydropyrimidine-5-carboxylate] | 4000 | 404 |
| COC(=O)C1=C(C2CCN(S(=O)(=O)CCO)CC2)NC(c2nccs2)=NC1c1ccc(F)cc1Cl (single isomer, unassigned) [Compound 185B, Methyl 4-(2-chloro-4-fluorophenyl)-6-(1-((2-hydroxyethyl)sulfonyl)piperidin-4-yl)-2-(thiazol-2-yl)-1,4-dihydropyrimidine-5-carboxylate] | 26200 | 18 |
| COC(=O)C1=C(C2CCCN2S(C)(=O)=O)NC(c2nccs2)=NC1c1ccc(F)cc1Cl (single isomer, unassigned) [Compound 69C, Methyl 4-(2-chloro-4-fluorophenyl)-6-(1-(methylsulfonyl)-pyrrolidin-2-yl)-2-(thiazol-2-yl)-1,4-dihydropyrimidine-5-carboxylate] | 11900 | 448 |
| COC(=O)C1=C(C2C[C@@H]3CN(S(C)(=O)=O)C[C@@H]3C2)NC(c2nccs2)=NC1c1ccc(F)cc1Cl (single isomer, unassigned) [Compound 176A, Methyl 4-(2-chloro-4-fluorophenyl)-6-((cis)-2-(methylsulfonyl)-octahydrocyclopenta[c]pyrrol-5-yl)-2-(thiazol-2-yl)-1,4-dihydropyrimidine-5-carboxylate] | 19900 | 69 |
| COCCS(=O)(=O)N1CCC(C2=C(C(=O)OC)C(c3ccc(F)cc3Cl)N=C(c3nccs3)N2)CC1 (stereo not drawn) [Compound 215, Methyl 4-(2-chloro-4-fluorophenyl)-6-(1-((2-methoxyethyl)sulfonyl)piperidin-4-yl)-2-(thiazol-2-yl)-1,4-dihydropyrimidine-5-carboxylate] | 52700 | 51 |
| COC(=O)C1=C(C2CCN(S(=O)(=O)c3nccs3)CC2)NC(c2nccs2)=NC1c1ccc(F)cc1Cl (stereo not drawn) [Compound 200A, Methyl 4-(2-chloro-4-fluorophenyl)-2-(thiazol-2-yl)-6-(1-(thiazol-2-ylsulfonyl)piperidin-4-yl)-1,4-dihydropyrimidine-5-carboxylate] | > 100000 | 102 |
| COC(=O)C1=C(C2CN(S(=O)(=O)C3CCCCC3)C2)NC(c2nccs2)=NC1c1ccc(F)cc1Cl (stereo not drawn) [Compound 82, Methyl 4-(2-chloro-4-fluorophenyl)-6-(1-(cyclohexylsulfonyl)-azetidin-3-yl)-2-(thiazol-2-yl)-1,4-dihydropyrimidine-5-carboxylate] | 6900 | 197 |
| COC(=O)C1=C([C@H]2CC[C@H](NS(N)(=O)=O)CC2)NC(c2nccs2)=NC1c1ccc(F)c(F)c1Cl (relative stereo) [Compound 238, (trans)-Methyl 4-(2-chloro-3,4-difluorophenyl)-6-(4-(sulfamoylamino)cyclohexyl)-2-(thiazol-2-yl)-1,4-dihydropyrimidine-5-carboxylate] | 13400 | 53 |
| COC(=O)C1=C(C23CC(NS(=O)(=O)C4CNC4)(C2)C3)NC(c2nccs2)=NC1c1ccc(F)c(F)c1Cl (stereo not drawn) [Compound 406, Methyl 6-(3-(azetidine-3-sulfonamido)bicyclo[1.1.1]pentan-1-yl)-4-(2-chloro-3,4-difluorophenyl)-2-(thiazol-2-yl)-1,4-dihydropyrimidine-5-carboxylate] | 5600 | 600 |
| COC(=O)C1=C(C2CCN(S(C)(=O)=O)CC2)NC(c2nccs2)=NC1c1cccc(F)c1Cl (stereo not drawn) [Compound 112, Methyl 4-(2-chloro-3-fluorophenyl)-6-(1-(methylsulfonyl)-piperidin-4-yl)-2-(thiazol-2-yl)-1,4-dihydropyrimidine-5-carboxylate] | 43200 | 293 |
| COC(=O)C1=C([C@H]2CC[C@H](S(=O)(=O)NCCC(C)(C)O)CC2)NC(c2nccs2)=NC1c1ccc(F)c(F)c1Cl (stereo partly drawn) [Compound 358B, (trans)-Methyl 4-(2-chloro-3,4-difluorophenyl)-6-(4-(N-(3-hydroxy-3-methylbutyl)sulfamoyl)cyclohexyl)-2-(thiazol-2-yl)-1,4-dihydropyrimidine-5-carboxylate] | 12500 | 59 |
| COC(=O)C1=C(C2CCN(S(=O)(=O)c3cnn(C)c3)CC2)NC(c2nccs2)=NC1c1ccc(F)cc1Cl (stereo not drawn) [Compound 165, Methyl 4-(2-chloro-4-fluorophenyl)-6-(1-((1-methyl-1H-pyrazol-4-yl)sulfonyl)piperidin-4-yl)-2-(thiazol-2-yl)-1,4-dihydropyrimidine-5-carboxylate] | > 100000 | 12 |

From US11639350B2, “Heteroaryldihydropyrimidine derivatives and methods of treating hepatitis B infections” (Janssen Pharmaceutica NV, priority 2018, dated 2023)
